Values belong to the compound of their own block, whether it stands above or below them.
Experiments:
[1] = T1 relaxation (relaxivity) in water; assay type: physicochemical
Source text: (§1) T1 relaxation (1/mmol·sec) is
(§2) The T1 relaxation (1/mmol·sec) is
(§3) The T1 relaxation (1/mmol·sec) amounts to
(§4) The T1 relaxation (1mmol·sec) is […]

[2] = T1 relaxation (relaxivity) in plasma; assay type: physicochemical
Source text: as §1, §2, §3, §4

[3] = system: rats; assay: in vivo NMR imaging in rat with Brown Pearce tumor (spin echo, 2 tesla); parameters: species or system rat (male hairless, Lew/Mol); settings: 0.06 mmol/kg i.v.
Source text: Spin echo scans were made with the NMR tomograph (CSI 2 T) at 2 tesla (TR time of 400 ms and TE time of 20 ms).
The contrast medium was administrated intravenously into a caudal vein of a male hairless rat (Lew/Mol) weighing 190 g, in a dose of 0.06 mmol/kg.

[4] = system: rats; assay: in vivo MRI in rats, T1-weighted spin echo, liver/stomach/osteogenic sarcoma; parameters: species or system rat (female, Lew/Mol); settings: 0.1 mmol Gd/kg i.v.; for enhancement of the stomach: ranking among the three compounds
Source text: The test animals were female rats of the strain Lew/Mol weighing 160-180 g. Prior to imaging, the animals were anesthetized ("Rompun"+"Ketavet") and provided with a catheter in the caudel vein to administer the contrast medium. Imaging took place in an MRI experimental device by General Electric (field strength 2 tesla). First of all, the images (7, 9, 11) were made without contrast medium with a T1 -weighted spin echo sequence (TR=400 msec, TE=20 msec, axial section plane, layer thickness 3 mm). The liver appears in each case with the normal signal intensity; the stomach is darker in tendency than the liver. […] This is due to feed residues, the feed containing manganese in relatively high concentrations (at the time of the test, the animals had been fasting for 6 hours). Animal 3 had been implanted with an osteogenic sarcoma three weeks previously; this sarcoma was of equal contrast in the blank image and could not be defined. The administration of contrast medium took place via the venous catheter with a dose of 0.1 mmol Gd/kg (concentration of the solutions 0.05 mmol Gd/ml in 0.9% NaCl) for all 3 compounds.

[5] = system: rats; settings: at this point in time after administration; no own data shown; cited from earlier work

Compound: COc1ccc(CC(CN(CCN(CC(=O)[O-])CC(=O)[O-])CC(=O)[O-])N(CC(=O)[O-])CC(=O)[O-])cc1.[Gd+3].[Na+].[Na+] (centres unmarked) [Example 1(c) disodium salt, Gadolinium Complex of 3,6,9-Triaza-3,6,9-tris-(carboxymethyl)-4-(4-methoxybenzyl)undecanedioic Acid]
T1 relaxation [1]: 4.54 ± 0.13 mmol⁻¹ s⁻¹
T1 relaxation [2]: 6.89 ± 0.17 mmol⁻¹ s⁻¹
increase in contrast in the stomach ([3]; 45 minutes after injection): strong increase in contrast
contrasting of the intestine ([3]; 60 minutes after injection): contrasting of the intestine can likewise be observed
contrasting of the renal pelvis ([3]; 60 minutes after injection): striking
visualization of the stomach ([3]; 60 minutes after injection): good visualization
visualization of the urinary bladder ([3]; 60 minutes after injection): good visualization
visualization of the tumor ([3]; 60 minutes after injection, Brown Pearce tumor in the thigh): good visualization
contrasting of the renal pelvis ([3]; 65 minutes after injection, somewhat different layer): even more improved
contrast enhancement in the zone of the liver ([3]; 180 minutes after injection, axial scan): contrast enhancement is likewise clearly recognizable
contrast enhancement in the urinary bladder ([3]; one minute after administration): first enhancement is already apparent

T1 relaxation [1]: 5.33 ± 0.13 mmol⁻¹ s⁻¹
T1 relaxation [2]: 8.69 ± 0.53 mmol⁻¹ s⁻¹
Compound: CCOc1ccc(CC(CN(CCN(CC(=O)[O-])CC(=O)[O-])CC(=O)[O-])N(CC(=O)[O-])CC(=O)[O-])cc1.[Gd+3].[Na+].[Na+] (centres unmarked) [Example 8(c), Disodium Salt of the Gadolinium Complex of 3,6,9-Triaza-3,6,9-tris(carboxymethyl)-4-(4-ethoxybenzyl)undecanedioic Acid]
enhancement of the liver ([4]; after 90 minutes): marked enhancement of the liver
enhancement of the stomach [4]: least

Compound: CCCCOc1ccc(CC(CN(CCN(CC(=O)[O-])CC(=O)[O-])CC(=O)[O-])N(CC(=O)[O-])CC(=O)[O-])cc1.[Gd+3].[Na+].[Na+] (centres unmarked) [Example 9(c), Disodium Salt of the Gadolinium Complex of 3,6,9-Triaza-3,6,9-tris(carboxymethyl)-4-(4-butoxybenzyl)undecanedioic Acid]
T1 relaxation ([1]; unit printed without slash): 5.80±0.26 1mmol·sec
T1 relaxation ([2]; unit printed without slash): 14.20±0.98 1mmol·sec
enhancement of the liver ([4]; after 60 minutes): marked enhancement of the liver

T1 relaxation [1]: 5.81 ± 0.11 mmol⁻¹ s⁻¹
T1 relaxation [2]: 16.35 ± 1.01 mmol⁻¹ s⁻¹
Compound: O=C([O-])CN(CCN(CC(=O)[O-])CC(Cc1ccc(OCc2ccccc2)cc1)N(CC(=O)[O-])CC(=O)[O-])CC(=O)[O-].[Gd+3].[Na+].[Na+] (centres unmarked) [Example 10(c), Disodium Salt of the Gadolinium Complex of 3,6,9-Triaza-3,6,9-tris(carboxymethyl)-4-(4-benzyloxybenzyl)undecanedioic Acid]
enhancement of the liver ([4]; after 60 minutes): marked enhancement of the liver
visibility of the tumor ([4]; animal 3, osteogenic sarcoma implanted three weeks previously, 60 minutes): clearly visible
absorption of the contrast medium by the tumor ([4]; animal 3, osteogenic sarcoma, 60 minutes): not absorbed the contrast medium at all, or only to a lesser proportion
enhancement of the stomach [4]: most strongly

Compound: CNC[C@H](O)[C@@H](O)[C@H](O)[C@H](O)CO.CNC[C@H](O)[C@@H](O)[C@H](O)[C@H](O)CO.O=C([O-])CN(CCN(CC(=O)[O-])CC(=O)O)CCN(CC(=O)[O-])CC(=O)O.[Gd+3] [Magnevist, dimeglumine salt of Gd DTPA [gadolinium(III)complex of diethylenetriaminepentaacetic acid]]
enhancement of the liver (comparison) [5]: cannot be observed

T1 relaxation [1]: 5.00 ± 0.01 mmol⁻¹ s⁻¹
T1 relaxation [2]: 7.10 ± 0.08 mmol⁻¹ s⁻¹
Compound: Gadolinium Complex of 3,6,9-Triaza-3,6,9-tris-(carboxymethyl)-4-(4-carboxymethoxybenzyl)-undecanedioic Acid [Example 6(c)]

T1 relaxation [1]: 4.23 ± 0.16 mmol⁻¹ s⁻¹
T1 relaxation [2]: 6.99 ± 0.13 mmol⁻¹ s⁻¹
Compound: Gadolinium Complex of 3,6,9-Triaza-3,6,9-tris-(carboxymethyl)-4-[4-(4-methoxybenzyloxy)benzyl]-undecanedioic Acid [Example 3(c)]

T1 relaxation [1]: 4.39 ± 0.12 mmol⁻¹ s⁻¹
T1 relaxation [2]: 6.31 ± 0.15 mmol⁻¹ s⁻¹
Compound: Gadolinium Complex of 3,6,9-Triaza-3,6,9-tris-(carboxymethyl)-4-benzyloxymethylundecanedioic Acid [Example 5(c)]

T1 relaxation [1]: 4.54 ± 0.13 mmol⁻¹ s⁻¹
T1 relaxation [2]: 6.89 ± 0.17 mmol⁻¹ s⁻¹
Compound: Gadolinium Complex of 3,6,9-Triaza-3,6,9-tris-(carboxymethyl)-4-benzylundecanedioic Acid [Example 4(d)]

T1 relaxation [1]: 4.17 ± 0.14 mmol⁻¹ s⁻¹
T1 relaxation [2]: 6.61 ± 0.18 mmol⁻¹ s⁻¹
Compound: Gadolinium Complex of 3,6,9-Triaza-3,6,9-tris-(carboxymethyl)-5-(4-methoxybenzyl)undecanedioic Acid [Example 2(c)]
